Several values for one entry are separate records, joined by “and”; a condition that tells them apart may be missing. Identical values can stand only once. Counter-ions that a name gives are not always drawn. Like-named read-outs stand apart in the source and are kept apart here.
How the values were obtained:
[1] = system: 11 different microbial strains; settings: for Toxic fingerprint: MTC value, Mean: mean of all 11 MTC values
Method: (§1) • dispense 150 μl of growth medium with indicator in each well • add a concentration gradient of the chemical to be tested to rows B-H in a MARA plate (i.e. an indicator device according to the present invention) • incubate for 16 h • read absorbance values; and • analyse with software.
(§2) Microbial responses to different chemicals was estimated by kinetic measurements of their growth using the Labsystem automated IEMS reader. A computer software that could monitor incubation temperatures, reading intervals, and automatically transfer OD data to a computer was developed. A growth medium containing 0.05% peptone, 0.011% bromothymol blue (BTB), 1% sodium chloride and 0.3% glucose was added to all wells. The glucose acts as a carbon source, and during growth the microorganism will break down the glucose and produce acids, that will turn the initially blue indicator to yellow. Each microplate contains 12 columns and 8 rows, and thus in each plate, 11 lyophilized microbial strains were used (one for each column, the 12th column was used as negative control). […] In order to avoid drying out of the plates during the incubation, one drop of sterile mineral oil was added to each well. The plate was then incubated in the IEMS spectrophotometer and the absorbance value from each well was measured every second hour during 48 h.
(§3) The overall toxicity of the chemical compound can be described either as the mean of all 11 MTC values (shown in column 12), or as the minimum value for all 11 microbial strains used in the assay (marked with bold in the table).
Concentrations are given in mg/ml.

Daphnia = settings: IC50-values, established assay; cited from earlier work
E. coli = settings: IC50-values, established assay; cited from earlier work
[2] = system: Photobacterium phosphoreum; settings: IC50-values, established assay; cited from earlier work
[3] = system: Aeromonas hydriphila HG3 (RV 5.1); settings: Microbial Toxic Concentration, incubation time 16 h
Method: as §1, §2, §3

[4] = system: JG1 (strain of marine origin); settings: Microbial Toxic Concentration, incubation time 16 h
Method: as §1, §2, §3

[5] = system: JG2 (strain of marine origin); settings: Microbial Toxic Concentration, incubation time 16 h
Method: as §1, §2, §3

[6] = system: JG4 (strain of marine origin); settings: Microbial Toxic Concentration; incubation time 16 h
Method: as §1, §2, §3

ObanF = settings: Microbial Toxic Concentration; incubation time 16 h
Method: as §1, §2, §3

[7] = system: Saccaromyces ceriviciae (bakers yeast); settings: Microbial Toxic Concentration, incubation time 16 h
Method: as §1, §2, §3

[8] = system: JG3 (strain of marine origin); test: MARA indicator device toxic fingerprint, microorganism no. 3; settings: Microbial Toxic Concentration; incubation time 16 h
Method: as §1, §2, §3

[9] = system: β-proteobacterium A22 (Kalmar 200); test: MARA indicator device toxic fingerprint, microorganism no. 5; settings: Microbial Toxic Concentration, incubation time 16 h
Method: as §1, §2, §3

microorganism no. 7 = test: MARA indicator device toxic fingerprint, microorganism no. 7; settings: Microbial Toxic Concentration, incubation time 16 h
Method: as §1, §2, §3

E. coli MZ 480 = test: MARA indicator device toxic fingerprint, microorganism no. 8; settings: Microbial Toxic Concentration, incubation time 16 h
Method: as §1, §2, §3

[10] = system: Staphylococcus epidermidis (Karin12); test: MARA indicator device toxic fingerprint, microorganism no. 11; settings: Microbial Toxic Concentration, incubation time 16 h
Method: as §1, §2, §3

[11] = 11 microbial strains (panel, species not named)
[12] = MTC value of the strain showing the highest sensitivity
[13] = mean MTC for the 11 microbial strains

Row | SMILES | Inhibitory concentrations by method: Daphnia (Daphnia) | Inhibitory concentrations by method: E. coli (E. coli) | Inhibitory concentrations by method: Microtox [2] | Toxic fingerprint: MTC value for microorganism no. 6 [3] | Toxic fingerprint: MTC value for microorganism no. 1 [4] | Toxic fingerprint: MTC value for microorganism no. 2 [5] | Toxic fingerprint: MTC value for microorganism no. 4 [6] | Toxic fingerprint: MTC value for microorganism no. 9 (ObanF) | Toxic fingerprint: MTC value for microorganism no. 10 [7] | Toxic fingerprint: MTC value for microorganism no. 3 [8] | Toxic fingerprint: MTC value for microorganism no. 5 [9] | Toxic fingerprint: MTC value for microorganism no. 7 (microorganism no. 7) | Toxic fingerprint: MTC value for microorganism no. 8 (E. coli MZ 480) | Toxic fingerprint: MTC value for microorganism no. 11 [10] | Inhibitory concentrations by method: MARA MTCmin [1, 12] | Inhibitory concentrations by method: MARA MTCmean [1, 13] | Toxic fingerprint: MTC value, Mean [1] | other results
1 | Oc1ccccc1 [Phenol] | 0.007 mg/mL | 2.258 mg/mL | 0.133 mg/mL |  |  |  |  |  |  |  |  |  |  |  |  |  |  | Inhibitory concentrations by method: MARA MTCmin [1]: 0.412 mg/mL; Inhibitory concentrations by method: MARA MTCmean [1, 11]: 0.831 mg/mL
2 | O=[N+]([O-])[O-].O=[N+]([O-])[O-].[Ba+2] [Barium nitrate] | 0.208 mg/mL |  | 29.318 mg/mL | 0.713 | 2.520 | 0.205 | 5.620 | 1.490 | 0.453 | 0.908 | 1.090 | 1.110 | 1.360 | 0.466 | 0.453 mg/mL | 1.420 mg/mL | 1.420 | mean toxicity levels (MTC values) ([1]; text to FIG. 7): 1.4 mg/L
3 | [F-].[Na+] [Sodium Fluoride] | 0.636 mg/mL | 10.547 mg/mL | 9.843 mg/mL |  | 3.290 and 2.220 | 2.660 and 2.930 | 6.040 and 6.560 | 22.700 and 20.100 | 5.650 and 4.130 |  | 9.500 and 15.000 | 6.450 and 7.890 | 11.400 and 14.600 |  | 4.890 mg/mL | 8.050 mg/mL | 6.930 and 9.170 | 
4 | Cn1c(=O)c2c(ncn2C)n(C)c1=O [Caffeine] | 0.158 mg/mL | 15.426 mg/mL | 2.129 mg/mL | 2.190 |  | 1.010 |  |  | 0.790 |  | 0.973 | 2.930 | 3.430 | 6.060 | 0.788 mg/mL | 2.085 mg/mL | 2.250 | Toxic fingerprint: MTC value for microorganism no. 6 ([3]; listed as Coffein): 1.300; Toxic fingerprint: MTC value for microorganism no. 2 ([5]; listed as Coffein): 1.080; Toxic fingerprint: MTC value for microorganism no. 10 ([7]; listed as Coffein): 0.785; Toxic fingerprint: MTC value for microorganism no. 5 ([9]; listed as Coffein): 3.550; Toxic fingerprint: MTC value for microorganism no. 7 (microorganism no. 7; listed as Coffein): 1.510; Toxic fingerprint: MTC value for microorganism no. 8 (E. coli MZ 480; listed as Coffein): 3.500; Toxic fingerprint: MTC value for microorganism no. 11 ([10]; listed as Coffein): 2.310; Toxic fingerprint: MTC value, Mean ([1]; listed as Coffein): 1.920
5 | [Cl-].[Cl-].[Mg+2] [Magnesium Chloride] |  |  |  | 13.500 | 28.800 | 9.660 | 7.500 | 8.830 | 22.700 | 7.420 | 14.800 | 12.100 | 24.100 | 4.580 |  |  | 13.900 | 
6 | CSc1ccc2c(c1)N(CCC1CCCCN1C)c1ccccc1S2 (centres unmarked) [Tioridazin HCl] |  |  |  | 0.027 |  | 0.017 |  |  | 0.014 |  | 0.029 | 0.042 | 0.006 | 0.006 | 0.006 mg/mL | 0.028 mg/mL | 0.028 | 
7 | CN1[C@@H]2CC[C@H]1CC(OC(=O)C(CO)c1ccccc1)C2.CN1[C@@H]2CC[C@H]1CC(OC(=O)C(CO)c1ccccc1)C2.O=S(=O)(O)O (some centres unmarked) [Atropin Sulphate] | 0.347 mg/mL | 56.294 mg/mL |  |  |  |  |  |  |  |  |  |  |  |  |  |  |  | 
8 | Cc1ccccc1C(OCCN(C)C)c1ccccc1 (centres unmarked) [Orphenadrin HCl] |  |  |  |  |  |  |  |  |  |  |  |  |  |  |  |  |  | Toxic fingerprint: MTC value, Mean ([1]; HCl): 0.131 and 0.146
9 | C[C@H]1O[C@@H](O[C@H]2[C@@H](O)C[C@H](O[C@H]3[C@@H](O)C[C@H](O[C@H]4CC[C@@]5(C)[C@H](CC[C@@H]6[C@@H]5C[C@@H](O)[C@]5(C)[C@@H](C7=CC(=O)OC7)CC[C@]65O)C4)O[C@@H]3C)O[C@@H]2C)C[C@H](O)[C@@H]1O [Digoxin] | 0.192 mg/mL |  | 1.129 mg/mL | 0.531 | 1.040 | 0.937 | 0.942 | 0.201 | 2.510 | 0.481 | 0.927 | 0.921 | 0.310 | 0.104 | 0.104 mg/mL | 0.770 mg/mL | 0.8 and 0.770 | 
10 | C=CC(N)=O [Acryl amide] |  |  |  | 2.480 and 2.810 | 0.965 and 0.853 | 2.440 and 1.810 | 2.100 and 2.510 | 13.900 and 11.000 | 6.620 and 6.970 | 4.280 and 3.370 | 5.740 and 3.240 |  | 17.700 and 23.300 | 8.300 and 10.300 |  |  | 4.700 and 4.690 | Toxic fingerprint: MTC value for microorganism no. 1 ([4]; listed as acrylamid): 0.9; Toxic fingerprint: MTC value for microorganism no. 8 (E. coli MZ 480; listed as acrylamid): 20
11 | [N-]=[N+]=[N-] [Sodium Azide] |  |  |  | 0.082 | 0.025 | 0.045 | 0.088 | 2.000 | 0.106 | 0.056 | 0.054 | 0.126 | 0.592 | 0.146 |  |  | 0.111 | 
12 | OCCO [Ethylene Glycol] | 74.625 mg/mL | 270.945 mg/mL | 167.064 mg/mL |  |  |  |  |  |  |  |  |  |  |  |  |  |  | Inhibitory concentrations by method: MARA MTCmin [1]: 11.775 mg/mL; Inhibitory concentrations by method: MARA MTCmean [1, 11]: 28.400 mg/mL
13 | [Cl-].[K+] [Potassium Chloride] |  |  |  | 27.100 | 28.200 | 29.400 | 17.000 | 65.400 | 16.000 | 10.600 | 20.100 | 67.300 | 62.300 | 31.300 |  |  | 29.800 | 

— patent US8551921B2, “Method for determining the toxicity of an environmental or chemical sample” (priority 2000, dated 2013)
